Experimental findings from patent US20200216837A1, “DRUG-TARGET IDENTIFICATION BY RAPID SELECTION OF DRUG RESISTANCE MUTATIONS” (KATHOLIEKE UNIVERSITEIT LEUVEN, priority 2016, published 2020) are described below.

The structures appear in SMILES notation.

For one experiment, the system named is HAP1 cells. In words: Cell viability assay of wild-type versus mutagenized drug-resistant cells. The format is cell-based, human. The following applies: for Drug sensitivity of HDR-edited cells carrying NAMPT mutations: NAMPT mutations reinstalled in native locus of parental cells by CRISPR-induced HDR; for Drug sensitivity of surviving colonies after tiling library transduction and drug selection: HAP1 Cas9 cells, FDA_target subpool B with bortezomib 14 days, or investigational library D with KPT-9274; for Drug sensitivity of colonies after Cas9/sgRNA targeting of the resistance hot spot: HAP1 cells, sgRNAs at XPO1 C528, KIF11 D130/A133, ERCC3 S162/Y163, NHEJ repair, 4 drug concentrations for selection; for Drug sensitivity of parental cells with a major protein variant reinstalled by CRISPR/Cas9-mediated HDR: XPO1 C528S,E529V,Q530H,K531I, KIF11 L132del, ERCC3 V166_K167insL in native locus. Here is the method:
Cells were transfected with the Neon Electroporation System after resuspension in Buffer R. DNA plasmids expressing the spCas9 or asCpf1 endonuclease and guiding RNA were added to a concentration of 37.5 ng/μL per plasmid and electroporated at 1,400-1,475V with 3 pulses of 10 ms. Two to three days after transfection, cells were treated with the respective drug to select for resistance over 7-14 days. Colonies were imaged with an IncuCyte© ZOOM (Essen Bioscience).
For HDR, a 123-134 bases long ssDNA oligonucleotide (850 ng) was added to the electroporation mixture in addition to the respective sgRNA and spCas9 expressing plasmids. Two days after electroporation, cells were treated with respective drugs for 5 days before imaging with an IncuCyte© ZOOM (Essen Bioscience). Following imaging, the HDR-template transfected cells were grown under drug selection for an additional week before any further experiments were performed.
Cell viability assays were performed by plating 3,000 HAP1, 5,000 HCT 116 or HL-60 cells in 96-well plates containing DMSO or a dilution of the test compound. Cells were incubated for 72 hours at 37° C. and 5% CO2. Cell viability was then assessed with the CellTiter 96® AQueous Non-Radioactive Cell Proliferation Assay (Promega) and colorimetric signals were measured with a Safire2™ (TECAN). Assays were performed in triplicate and each experiment was repeated at least once. Obtained values were adjusted with the background signal and divided by the DMSO control. Relative data values were then visualized and analyzed using a log-based 4 parameter model (GraphPad Prism).
For single guide drug resistance validation assays, 125.000 cells were transfected with Cas9 and the individual sgRNAs using the Neon Electroporation system as described above and plated into 6-well plates. Cells were treated 2-3 days after transfection with the respective compound for a period of 5-7 days, the medium was regularly refreshed and dead cells were washed away before imaging confluency using a live cell analysis system (Essen Bioscience, IncuCyte ZOOM®).

The subject of experiment [1] is HAP1 cells stably expressing spCas9 or asCpf1. Briefly: CRISPR mutagenesis scanning drug-target identification screen with tiling sgRNA/crRNA libraries. The following applies: 30 nM bortezomib, 300 nM KPT-9274 or 2 μM selinexor for 2 weeks. The format is cell-based, human. The method, then: FastQ files obtained after MiSeq sequencing were demultiplexed with the MiSeq Reporter software (Illumina). Demultiplexed and paired reads were trimmed, filtered and then aligned to the reference amplicon in Geneious (v9, Biomatters). To obtain haplotypes present in drug-resistant samples, bam files were analyzed with the CrispRVariants package run in RStudio by defining a 35-50 bp spanning region across the endonuclease cut site, as defined by pre-analysis of localized variants within Geneious. For this purpose, the CrispRVariants “readtotarget” input was run with parameters “upstream.snv” (30) and “downstream.snv” (15) on corresponding paired end sequencing reads to allow for haplotype determination. Haplotype nucleotide sequences were extracted with a small script. Nucleotide sequences were then visualized and mapped to the reference in Geneious v9 (Biomatters) and amino acid variants were determined. For visualization of the spectra of single nucleotide variants, NGS reads were aligned to the reference gene. Nucleotide occurrence frequencies were then determined in R on the aligned NGS reads using the deep SNV Bioconductor package. Sequences containing sgRNA/crRNAs from the lentiviral screens were trimmed from adapter sequences. Individual sgRNA/crRNA sequencing reads were then aligned to the pLCKO-U6-sgRNA vector within Geneious, counted with MaGeCK^18 and visualized in GraphPad Prism.
HAP1 cells stably expressing spCas9 or asCpf1 were resuspended in supplemented IMDM containing 8 μg/mL polybrene and transduced with lentiviral particles containing the desired sgRNA/crRNAs at a MOI of 0.25 (coverage of 5,000× per sgRNA for spCas9) or 0.35 (coverage of 15,000× per crRNA for asCpf1) by spinfection in 12-well plates. The next day cells were transferred to T150 cell flasks and selected with 1 μg/mL puromycin. Then 4 million (ispinesib/selinexor) or 10 million (KPT-9274/bortezomib) cells were harvested for DNA extraction and the remaining cells were treated for a period of 2 weeks with 8 nM ispinesib, 30 nM bortezomib, 300 nM KPT-9274 or 2 μM selinexor. […]

As for `O=C(/C=C/c1cccnc1)NCCCCC1CCN(C(=O)c2ccccc2)CC1` [FK866], the “Drug sensitivity of HDR-edited cells carrying NAMPT mutations” value in the experiment on HAP1 cells is “cross-resistant”. The “Drug sensitivity of the original KPT-9274 resistant cell pool” value with HAP1 cells (cell pool surviving the library D mutagenesis screen with KPT-9274, compared to wild-type) is reported as “cross-resistant”.

On to `Nc1ccc(/C=C/C(=O)NCc2cc3cc(-c4ccc(C(=O)N5CCC(F)(F)CC5)cc4)cc(-c4ccc(F)cc4)c3o2)cn1` [KPT-9274], for which, in the experiment on HAP1 cells, the “Drug sensitivity of surviving colonies after tiling library transduction and drug selection” value is “resistant”; the “Drug sensitivity of HDR-edited cells carrying NAMPT mutations” value is “resistant”. Also, in experiment [1], the “Target gene identified by enriched guide RNAs and resistance mutations” value (“Target gene identified” for short) is “NAMPT”.

Take `CC(C)C[C@H](NC(=O)[C@H](Cc1ccccc1)NC(=O)c1cnccn1)B(O)O` [bortezomib]: in the experiment on HAP1 cells, the “Drug sensitivity of surviving colonies after tiling library transduction and drug selection” value was “resistant”. In experiment [1], the “Target gene identified” value was “PSMB5”.

For `Cc1ccc(C(=O)N(CCCN)[C@@H](c2nc3cc(Cl)ccc3c(=O)n2Cc2ccccc2)C(C)C)cc1` [ispinesib], in the experiment with HAP1 cells, the “Drug sensitivity of colonies after Cas9/sgRNA targeting of the resistance hot spot” value was “resistant” and the “Drug sensitivity of parental cells with a major protein variant reinstalled by CRISPR/Cas9-mediated HDR” value (shortened to “Drug sensitivity … by CRISPR/Cas9-mediated HDR”) is “resistant”.

In the case of `O=C(/C=C\n1cnc(-c2cc(C(F)(F)F)cc(C(F)(F)F)c2)n1)NNc1cnccn1` [selinexor], the “Drug sensitivity of colonies after AsCpf1 tiling crRNA library and drug selection” value in the experiment with HAP1 cells (HAP1 AsCpf1 cells, 10 genes, 1,100 crRNAs, selinexor 2 μM) is “resistant”. Further, in the experiment with HAP1 cells, the “Drug sensitivity of colonies after Cas9/sgRNA targeting of the resistance hot spot” value is listed as “resistant” and the “Drug sensitivity … by CRISPR/Cas9-mediated HDR” value is given as “resistant”. Moreover, in experiment [1], the “Target gene identified” value is recorded as “XPO1”.

With `CC(C)[C@]12O[C@H]1[C@@H]1O[C@]13[C@]1(O[C@H]1C[C@H]1C4=C(CC[C@@]13C)C(=O)OC4)[C@@H]2O` [triptolide], in the experiment with HAP1 cells, the “Drug sensitivity of colonies after Cas9/sgRNA targeting of the resistance hot spot” value is “resistant” and the “Drug sensitivity … by CRISPR/Cas9-mediated HDR” value was “resistant”.
